In BindingDB's records for doi:10.1016/s0960-894x(01)00209-8 (Institut Für Biochemie Der Technischen …, 2001):

Target: Beta-glucosidase (Agrobacterium sp.) (UniProt P12614)
Experiment: Inhibitory activity against Agrobacterium sp. Beta-glucosidase employing fluorescence spectrometric method

Sequence of Beta-glucosidase (Agrobacterium sp.) (P12614 whole entry, looked up): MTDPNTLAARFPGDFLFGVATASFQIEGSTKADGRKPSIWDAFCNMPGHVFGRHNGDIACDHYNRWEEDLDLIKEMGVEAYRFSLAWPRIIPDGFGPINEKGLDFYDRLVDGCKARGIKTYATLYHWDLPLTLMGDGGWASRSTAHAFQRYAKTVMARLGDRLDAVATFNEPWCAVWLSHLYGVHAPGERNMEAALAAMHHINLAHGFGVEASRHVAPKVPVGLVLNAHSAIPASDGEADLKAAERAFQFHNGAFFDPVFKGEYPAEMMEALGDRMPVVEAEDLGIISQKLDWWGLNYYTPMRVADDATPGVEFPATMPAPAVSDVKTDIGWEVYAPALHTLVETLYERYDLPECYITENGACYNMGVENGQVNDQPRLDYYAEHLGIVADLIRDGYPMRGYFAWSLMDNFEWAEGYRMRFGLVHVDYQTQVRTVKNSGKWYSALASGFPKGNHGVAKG

Row | Ki | SMILES
1 | 2.4 nM | CN(C)c1cccc2c(S(=O)(=O)NC[C@H]3N[C@H](CO)[C@H](O)[C@@H]3O)cccc12 [5-Dimethylamino-naphthalene-1-sulfonic acid ((3S,4S,5R)-3,4-dihydroxy-5-hydroxymethyl-pyrrolidin-2-ylmethyl)-amide]
2 | 2.1 nM | CN(C)c1cccc2c(S(=O)(=O)NCCCCCC(=O)NC[C@H]3N[C@H](CO)[C@H](O)[C@@H]3O)cccc12 [6-(5-Dimethylamino-naphthalene-1-sulfonylamino)-hexanoic acid ((3S,4S,5R)-3,4-dihydroxy-5-hydroxymethyl-pyrrolidin-2-ylmethyl)-amide]
